Data on 41 compounds can be found in PubChem BioAssay AID1033 (Sanford-Burnham Center for Chemical Genomics, 2008).

Calls of active or inactive are those of the source. The rule behind the calls is not given here.

For the assay, the target named is Chaperone protein DnaK (Escherichia coli (strain K12)) (UniProt P0A6Y8). Briefly: E. coli DnaK SBD ligand binding – biophysical, NMR, chaperone (AID 1033). Conditions: Purified DnaK SBD.
Chaperone protein DnaK (Escherichia coli (strain K12)), sequence (P0A6Y8 whole entry, looked up): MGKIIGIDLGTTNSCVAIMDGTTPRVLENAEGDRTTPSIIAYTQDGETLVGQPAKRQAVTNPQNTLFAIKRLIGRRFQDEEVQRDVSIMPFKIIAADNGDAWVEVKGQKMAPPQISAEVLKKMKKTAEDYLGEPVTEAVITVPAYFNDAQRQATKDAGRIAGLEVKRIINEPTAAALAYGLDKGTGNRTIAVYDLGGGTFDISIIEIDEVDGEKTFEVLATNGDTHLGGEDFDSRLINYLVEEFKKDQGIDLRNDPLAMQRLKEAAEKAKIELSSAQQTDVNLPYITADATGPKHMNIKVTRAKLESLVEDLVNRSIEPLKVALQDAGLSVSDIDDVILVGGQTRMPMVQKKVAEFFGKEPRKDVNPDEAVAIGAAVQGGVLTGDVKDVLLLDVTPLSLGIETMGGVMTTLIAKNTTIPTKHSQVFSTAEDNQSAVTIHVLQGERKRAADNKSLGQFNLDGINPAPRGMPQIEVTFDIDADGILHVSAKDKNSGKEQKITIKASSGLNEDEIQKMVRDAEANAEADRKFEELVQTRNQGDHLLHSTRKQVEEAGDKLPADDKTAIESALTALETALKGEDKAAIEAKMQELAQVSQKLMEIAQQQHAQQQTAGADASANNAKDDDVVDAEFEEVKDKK
Broadly, the Kd is the equilibrium constant for the complex coming apart. Consider `Nc1cccc2nsnc12`, for which the Kd was > 4 mM (inactive). `O=S(=O)(c1ccc(F)c(Cl)c1)N1CCCC1`: the Kd was > 4 mM (inactive). As for `C[C@@H]1CC[C@H]2[C@@H](C)C(=O)O[C@@H]3OC4(C)CC[C@@H]1[C@]32OO4`, the figure is > 4 mM (inactive); as for `O=C(Nc1ccc2c(c1)OCO2)c1cccs1`, > 4 mM (inactive); as for `CCc1c(C)[nH]c(=S)c(C(N)=O)c1C`, > 4 mM (inactive). For `CC12CN([N+](=O)[O-])C3(C(N)=O)CC1CCC23C` (stereo unspecified) the value was > 4 mM (inactive); for `Cc1cc(C)n(S(=O)(=O)c2ccc(C(C)(C)C)cc2)n1`, > 4 mM (inactive). For `Cc1sc(N)c(C(N)=O)c1C` the value was > 4 mM (inactive). Take `NC(=O)CCn1cnc2ccccc21`: the Kd is > 4 mM (inactive). For `COC1C(O)C(O)C(O)[C@@H](O)C1O` (stereo partly specified) the value was > 4 mM (inactive); for `Cc1cccc(CSc2nncc(=O)[nH]2)c1`, > 4 mM (inactive).

Turning to `Cc1cc2nc(SCC(=O)O)nc(C)c2cc1C`, the Kd was > 4 mM (inactive). Turning to `O=C(O)C(Cc1cnc[nH]1)N1C(=O)c2ccccc2C1=O` (stereo unspecified), the Kd is > 4 mM (inactive). For `CC(C)CCCC(C)[C@H]1CCC2C3CC[C@@H]4C[C@H](O)CC[C@]4(C)C3CC[C@@]21C` (stereo partly specified) the value was > 4 mM (inactive); for `c1ccc(-n2nnnc2-n2cnc3ccccc32)cc1`, > 4 mM (inactive). As for `CC(=O)Oc1ccc2c(c1OC(C)=O)OCC1(O)Cc3c(cc(OC(C)=O)c(OC(C)=O)c3OC(C)=O)C21` (stereo unspecified), the Kd is > 4 mM (inactive). For `O=C(O)c1ccccc1C(=O)NCC1CCCO1` (stereo unspecified) the value was > 4 mM (inactive); for `COC(=O)CCC(C)[C@H]1CCC2C3C(C[C@H](O)[C@@]21C)[C@@]1(C)CC[C@@H](O)C[C@H]1C[C@H]3O` (stereo partly specified), > 4 mM (inactive). As to `CC(=O)c1c(C)nc(-c2ccc(Cl)cc2Cl)n1O`, the Kd is > 4 mM (inactive).

As for `CCOc1nc(C)ccc1-c1noc(-c2ccncc2)n1`, the Kd was > 4 mM (inactive).

Take `Cc1ccccc1CSc1nncn1N`: the Kd is > 4 mM (inactive). For `O=C1NC2NC(=O)N(c3ccccc3)C2N1` (stereo unspecified) the value was > 4 mM (inactive); for `COc1ccc(C2(C)NC(=O)NC2=O)cc1` (stereo unspecified), > 4 mM (inactive). As to `CC1=CCCC2C1(C)CCC(C)C2(C)CC/C(C)=C/C[n+]1cn(C)c2c(N)ncnc21` (stereo unspecified), the Kd is > 4 mM (inactive). On to `Cc1nn2c(-c3ccco3)nnc2c2ccccc12`, for which the Kd is > 4 mM (inactive). For `CC(=O)NC(=S)Nc1cccc(C(=O)O)c1C` the value was > 4 mM (inactive); for `S=C=NCc1ccccc1`, > 4 mM (inactive). For `CC(C)(C)NC(=O)CN1C(=O)c2ccccc2S1(=O)=O` the value was > 4 mM (inactive). For `CC(=O)N1CCN(C2CCSC2)CC1` (stereo unspecified) the value was > 4 mM (inactive); for `O=C(Nc1cnc2ccccn2c1=O)c1ccc(F)cc1`, > 4 mM (inactive). `Cc1ccccc1NC(=S)NCCO`: the Kd is > 4 mM (inactive). For `O=C(O)c1ccnn1-c1ccccc1` the value was > 4 mM (inactive); for `O=C(O)c1ccc2occc2c1`, > 4 mM (inactive).

For `O=C1NC(=S)NC(=O)C1=Cc1cccs1`, the Kd was > 4 mM (inactive). On to `Cn1nnc2c(N3CCC(C(N)=O)CC3)ncnc21`, for which the Kd was > 4 mM (inactive). Consider `CC(C)Oc1ccc(NC(N)=O)cc1`, for which the Kd is > 4 mM (inactive).

For `O=C(NCN1CCOCC1)c1cccnc1`, the Kd was > 4 mM (inactive). For `Cc1cc(=O)n2ncn(Cc3ccccc3)c2n1` the value was > 4 mM (inactive); for `O=C(O)CN1CCNCC1`, > 4 mM (inactive); for `O=C1NC(=S)N/C1=C/c1ccc(O)c(Cl)c1`, > 4 mM (inactive).

Consider `O=C(Nc1ccccc1C(F)(F)F)N1CCCCCC1`, for which the Kd is > 4 mM (inactive).
